The source of these data is patent publication US20060088475A1, “Self-immolative magnetic resonance imaging contrast agents sensitive to beta-glucuronidase” (Northwestern University, priority 2004, published 2006).

Data set [1] in a line: T1 relaxivity at 60 MHz, 37° C. (inversion recovery, Gd(III) concentration by ICP-MS). Type of data set: physicochemical. Conditions: for relaxivity r1 / increase in relaxivity on going from anion mimic to human serum: 37° C.; for decrease of relaxivity on addition of carbonate to the buffers: 24 mM carbonate added to MOPS or phosphate/BSA buffer; for decline of relaxivity in anion extracellular mimic: anion extracellular mimic (100 mM NaCl, 0.9 mM Na2HPO4, 30 mM NaHCO3, 0.13 mM sodium citrate, 2.3 mM sodium lactate) versus carbonate-containing buffers; for increase in relaxivity on going from anion mimic to human serum: male human blood serum versus extracellular anion mimic. The method, then: A 4 mM stock solution of either 1 or 2 in the appropriate buffer was diluted to give 500 μL each of seven approximate concentrations for each run: 0, 0.05, 0.15, 0.3, 0.5, 1.0, and 2.0 mM. The T1 of each concentration was determined using an inversion recovery pulse sequence with appropriate recycle delays on a Bruker mq60 Minispec. This instrument has a proton Larmor frequency of 60 MHz and operates at 37° C. The resulting curves were fit to a monoexponential function to obtain T10.10 μL of each sample was digested in concentrated nitric acid, diluted with water and analyzed for exact Gd(III) concentration using ICP-MS. The reciprocal of the longitudinal relaxation time was plotted against the concentration obtained from ICP-MS and fit to a straight line. All lines fit with R^2>0.998. This was performed for each buffer in duplicate. The buffers were all made to have the appropriate pH at 37° C. and remade if the pH had drifted more than 0.05 pH units upon storage. Anion mimic and carbonate containing buffers were made fresh daily.

Data set [2] is described as follows: Determination of q via Eu(III) phosphorescence lifetimes in H2O and D2O. The format is physicochemical. The method, then:
Determination of q: Europium(III) compound 4 was dissolved in H2O and D2O. The emission was monitored at 614 nm with excitation at 394 nm on a Hitachi F4500 fluorometer operating in Phosphorescence Lifetime (short) mode. The shortest lifetime measurable with this instrument is about 0.3 ms. Fifteen scans were averaged and fit to a monoexponential decay to give phosphorescent lifetimes. T(D2O)=1.274 ms; T (H2O)=0.527 ms. Using the equation of Supkowski and Horrocks (See, e.g., Supkowski and Horrocks, Inorg. Chim. Acta 2002, 340, 44-48), q=0.89 while the equation from Beeby et al. ^40generates q=1.04.

The target of data set [3] is T1, bovine liver β-glucuronidase (Bos taurus, UniProt A3KMY8).
T1 construct: β-glucuronidase isolated from bovine liver was chosen for the current studies; purchased Sigma G 0251; host or cells: bovine liver (tissue isolate)
T1 sequence (A3KMY8 1-652): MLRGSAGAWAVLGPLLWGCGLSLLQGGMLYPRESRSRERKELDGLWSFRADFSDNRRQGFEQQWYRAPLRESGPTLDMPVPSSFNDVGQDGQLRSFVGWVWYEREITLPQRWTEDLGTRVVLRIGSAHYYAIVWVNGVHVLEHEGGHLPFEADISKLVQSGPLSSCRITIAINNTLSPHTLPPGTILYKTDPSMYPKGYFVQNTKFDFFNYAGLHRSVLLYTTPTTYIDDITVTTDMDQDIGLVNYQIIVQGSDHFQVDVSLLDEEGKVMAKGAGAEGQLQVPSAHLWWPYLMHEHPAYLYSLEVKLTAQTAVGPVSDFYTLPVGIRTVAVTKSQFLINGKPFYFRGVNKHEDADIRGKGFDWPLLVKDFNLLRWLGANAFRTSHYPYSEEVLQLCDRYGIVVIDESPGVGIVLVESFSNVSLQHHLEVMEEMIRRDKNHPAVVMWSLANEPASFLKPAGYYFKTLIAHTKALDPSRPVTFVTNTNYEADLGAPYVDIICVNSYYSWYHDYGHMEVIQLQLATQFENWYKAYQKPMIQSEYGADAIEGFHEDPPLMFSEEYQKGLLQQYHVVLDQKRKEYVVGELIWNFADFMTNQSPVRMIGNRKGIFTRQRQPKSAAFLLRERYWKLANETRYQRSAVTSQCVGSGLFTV
The experiment in a line: Enzyme catalyzed hydrolysis kinetics monitored by UV-visible. Type of data set: biochemical. Conditions: for initial rate: 0.2 mM 1, 1.0 mg/ml enzyme, pH 7.4, 37° C. The procedure: (§1) General: Bovine liver β-glucuronidase (Type B-1, Sigma G 0251) stability in several buffers was assayed by incubating the enzyme in the desired buffer and sampling its activity at various time intervals using the Sigma quality control assay for β-glucuronidase from bovine liver. It was determined that MOPS and anion mimic (See, e.g., Parker, D. In Crown Compounds: Towards Future Applications; Cooper, S. R., Ed.; VCH: New York, 1992, pp 51-67) engendered the enzyme with poor stability, while 100 mM phosphate with 0.01% (w/v) bovine serum albumin (BSA), pH=7.4 at 37° C. gave suitable stability (>2 h at 37° C. without loss of activity) provided the enzyme concentration was greater than 0.5 mg/ml. The enzyme was stable for at least 24 h at 37° C. at its native pH of 5.0 in 100 mM acetate buffer. All kinetics measurements were made with 0.2 mM substrate, 1, in 510 μL buffer with either 1.0 mg/ml enzyme (those buffers at pH=7.4) or 0.1 mg/ml enzyme (pH=5.0 acetate buffer). For all buffers except serum (due to its opacity), the kinetics were determined simultaneously by both UV-visible and magnetic resonance. The runs were all continuous assays that are known to give the best data (See, e.g., Marangoni, A. G. Enzyme kinetics: a modern approach; Wiley-Interscience: Hoboken, N.J., 2003; Copeland, R. A. Enzymes: a practical introduction to structure, mechanism, and data analysis; VCH Publishers: New York, N.Y., 1996). Each run was performed in triplicate and two controls, one without enzyme and one without substrate, were also measured. […] This trend is in the opposite direction of the kinetics runs that show an increase in T1.
UV-visible: The enzymatic hydrolysis of the pyranose from 1 and subsequent linker decomposition generates 4-hydroxy-3-nitrobenzyl alcohol. This compound has a maximum absorbance of 422 nm at pH=7.4. The molar absorptivity, E, was determined in triplicate from 0-0.2 mM, on an HP 8452A diode array spectrometer thermostated to 37° C. For 100 mM phosphate, 0.01% (w/v) BSA, pH=7.4 at 37° C. it is 2840±40 M^−1 cm^−1. For 100 mM phosphate, 24 mM NaHCO3, 0.01% (w/v) BSA, pH=7.4 at 37° C. it is 3010±50 M^−1 cm^−1. […] At pH=5.0 in acetate buffer, the maximum is at 354 nm. This overlaps with substrate, 1, absorption. The kinetics were sampled on the HP 8452A at 37° C. every 20 seconds for an hour. The initial rates for pH=7.4 buffers were determined through a linear fit of the first 10% change in absorbance. For the acetate buffer, only a half-life of conversion is reported. […] 4-hydroxy-3-nitrobenzyl alcohol was also present in the acetate runs as determined by LC-MS using 100 mM acetate pH=5 as solvent A.

For data set [4], the target named is T1, bovine liver β-glucuronidase. Put plainly: LC-MS analysis of the enzyme reaction mixture. The format is biochemical. The following applies: phosphate buffer with 0.01% BSA, pH=7.4, 37° C., after 24 h. The procedure: LC-MS. […] The alcohol and 1 are readily distinguished by their absorption spectra (PDA), their appropriate negative mode ESI-MS patterns and through spiking with authentic compound. 2 was more difficult to detect but could be observed using fluorescence. The HPLC method was as follows: 0-10% B over 10 min, hold at 10% B for 15 min, with fluorescence using λex=271 nm, λem=314 nm.

The target is the same in data set [5]. The experiment in a line: Enzyme catalyzed hydrolysis kinetics monitored by bulk water T1 relaxation (magnetic resonance). Type of data set: biochemical. The procedure: as §1
(§2) Magnetic Resonance: T1 was determined at intervals of 2 minutes for the first 30 min and 4 minutes for the next 30 min using a saturation recovery (90-T-90) pulse sequence using the Bruker mq60 operating as detailed in the relaxivity section. This sequence is less accurate than the inversion recovery method, but gives faster results. The runs were performed in triplicate. The substrate-only control was also examined in this manner.

Data set [6] deals with bovine liver β-glucuronidase. The description is as above. The format is biochemical. Conditions: acetate buffer, over the course of an hour, no enzyme. The procedure:
as §1, §2

For data set [7] the following is noted: phenol of the linker; cited from earlier work.
The mark [8] stands for this setting: 10 mM MOPS, 100 mM NaCl, pH=7.4, 60 MHz.
[9] abbreviates: 10 mM pyridine, 100 mM sodium chloride buffer, pH=5.0, 60 MHz.
Setting [10] is: 100 mM acetate buffer, pH=5.0, 60 MHz.
The mark [11] stands for this setting: 100 mM sodium phosphate, 0.01% (w/v) BSA, pH=7.4, 60 MHz.

With `CC(O)CN1CCN(CC(=O)[O-])CCN(CC(=O)[O-])CCN(CC(=O)[O-])CC1.[Gd+3]` (stereo not drawn) [GdHP-DO3A, reference compound], the “relaxivity r1” value in data set [1] (setting [8]) was found to be 2.99 ± 0.44 mM⁻¹ s⁻¹.
On to “Europium(III) 1-(4-(2-(1-(4,7,10-tris-carboxymethyl-(1,4,7,10-tetrazaacyclododecyl)))-ethylcarbamoyloxymethyl)-2-nitrophenyl)-β-D-glucopyronuronate [Compound 4]”, for which, in data set [2] (D2O, excitation 394 nm, emission 614 nm), the “phosphorescent lifetime T(D2O)” value came to 1.274 ms. The “q (inner-sphere water molecules)” value in data set [2] (Eu(III) fluorescence, absence of buffer salts) was determined as 1; in data set [2] (equation from Beeby et al.), 1.04; in data set [2] (equation of Supkowski and Horrocks), 0.89. In addition, the “phosphorescent lifetime T (H2O)” value in data set [2] (H2O, excitation 394 nm, emission 614 nm) came out at 0.527 ms.
As to `NCCN1CCN(CC(=O)[O-])CCN(CC(=O)[O-])CCN(CC(=O)[O-])CC1.[Gd+3]` [Compound 2, Gadolinium(III)1-(2-aminoethyl)-4,7,10-(tris-carboxymethyl)-(1,4,7,10-tetrazaacyclododecane)], the “relaxivity r1” value in data set [1] (setting [8]) was “comparable to GdHP-DO3A”; in data set [1] (setting [9]), 4.16 ± 0.09 mM⁻¹ s⁻¹; in data set [1] (setting [10]) it was 2.16 ± 0.04 mM⁻¹ s⁻¹; in data set [1] (setting [11]) it was 3.68 mM⁻¹ s⁻¹. Also, the “decrease of relaxivity on addition of carbonate to the buffers” value in data set [1] (pH=7.4) is “remained the same within error”. Also, in data set [1], the “decline of relaxivity in anion extracellular mimic” value worked out at 6%. In data set [1], the “increase in relaxivity on going from anion mimic to human serum” value was 150%.
Consider `O=C([O-])CN1CCN(CCNC(=O)OCc2ccc(O[C@@H]3O[C@H](C(=O)O)[C@@H](O)[C@H](O)[C@H]3O)c([N+](=O)[O-])c2)CCN(CC(=O)[O-])CCN(CC(=O)[O-])CC1.[Gd+3]` [Compound 1, Gadolinium(III) 1-(4-(2-(1-(4,7,10-tris-carboxymethyl-(1,4,7,10-tetrazaacyclododecyl)))-ethylcarbamoyloxymethyl)-2-nitrophenyl)-β-D-glucopyronuronate], for which the initial rate turned out to be 158 ± 34 nmol product/h/mg enzyme in data set [3] (phosphate/BSA (100 mM sodium phosphate, 0.01% BSA)) and 148 ± 26 nmol product/h/mg enzyme in data set [3] (phosphate/BSA/carbonate (24 mM NaHCO3)). Besides, in data set [3] (pH=5 acetate buffer, enzyme concentration 10% of that at pH=7.4), the “time to complete conversion” value is reported as at most 45 min. Also, in data set [3] (pH=7.4 versus literature pH=5.5 data), the “initial rate at pH=7.4 relative to standard substrate 4-methylumbelliferyl-β-D-glucuronide at pH=5.5” value is listed as “roughly 8%”. In addition, the “presence of substrate in reaction mixture by LC/MS” value in data set [4] is given as “disappeared”. In addition, the “relaxivity r1” value in data set [1] (setting [8]) is “higher value”; in data set [1] (setting [9]), 3.89 ± 0.05 mM⁻¹ s⁻¹; in data set [1] (setting [10]) it was 2.53 ± 0.01 mM⁻¹ s⁻¹; in data set [1] (setting [11]), 4.73 mM⁻¹ s⁻¹. Further, in data set [1] (pH=7.4), the “decrease of relaxivity on addition of carbonate to the buffers” value is recorded as 20-30%. Moreover, in data set [1] (acetate buffer, pH=5.0), the “decrease in relaxivity between the pure compounds (1 to 2)” value came out at 15%. Also, the “increase in relaxivity from 1 to 2 (dark to bright change)” value in data set [1] (anion extracellular mimic) came out at 17%. Further, the “decline of relaxivity in anion extracellular mimic” value in data set [1] is 22%. In addition, the “relaxivity differential, 1 brighter than 2” value in data set [1] (human serum) is 27%. For the same molecule, the “increase in relaxivity on going from anion mimic to human serum” value in data set [1] is given as 240%. For the same molecule, the “drop in relaxivity upon going from 1 to 2” value in data set [1] (phosphate/BSA buffer (same trend as MOPS), pH=7.4) is on record as 20%. Further, in data set [5] (0.2 mM 1, 0.1 mg/ml β-glucuronidase, acetate buffer pH=5.0, around 35 min), the “increase in T1 during enzyme incubation (levels off)” value is reported as 15%. Moreover, the “increase in T1 during enzyme incubation” value in data set [5] (0.2 mM 1, 1.0 mg/ml β-glucuronidase, human serum, over one hour, curve not saturated) was 14%. Moreover, the “decrease in T1 of substrate control without enzyme” value in data set [6] came out at 2%.
On to `O=[N+]([O-])c1cc(CO)ccc1O` [4-hydroxy-3-nitrobenzyl alcohol], for which, in data set [7], the pKa result is on record as “about 7.5”.
